In US7423181B2, “Aminoalkoxy-functional chalcones” (Lica Pharmaceuticals A/S, priority 2002, dated 2008):
≈ marks a conversion by molar mass, not a printed value. Where two headings read alike, the source gives them in different places.

Tests used:
[1] = test system: Staphylococcus aureus ATCC29213; experiment: MIC determination in broth microdilution assay
[2] = test system: Staphylococcus aureus ATCC33591(resistant to methicillin); experiment: MIC determination in broth microdilution assay
[3] = test system: Enterococcus faecalis ATCC29212; experiment: MIC determination in broth microdilution assay
[4] = test system: Enterococcus faecium #17501 (vancomycin-resistant clinical isolate); experiment: MIC determination in broth microdilution assay
[5] = test system: Streptococcus pneumoniae #998 (clinical isolate); experiment: MIC determination in broth microdilution assay
[6] = test system: Eschericia coli ATCC25922; experiment: MIC determination in broth microdilution assay; details: for MIC: G: Eschericia coli ATCC25922
Eschericia coli ESS = experiment: MIC determination in broth microdilution assay
[7] = test system: panel of 10 different non-fastidious bacteria; experiment: Screening against panel of non-fastidious bacteria; details: Gram-positive pathogens
L. major promastigotes = experiment: Leishmania promastigote assay; details: L. major
[8] = test system: Plasmodium falciparum 3D7; experiment: Plasmodium falciparum assay; type: cell-based; details: Plasmodium falciparum 3D7 (Table 2); read-out: IC50
[9] = Determination of metabolic stability (liver microsomes); type: in vitro ADME; details: rat liver microsomes, 20 μM, 15 min
Protocol: Determination of Metabolic Stability
Incubations were performed with Wistar rat liver microsomes (0.25 mg/ml) in 2% sodium bicarbonate solution. NADP (0.13 mg/ml), glucose-6-phosphate (0.63 mg/ml) and glucose-6-phosphate dehydrogenase (0.38 units/ml) were used as NADPH generation system and UDPGA (0.48 mg/ml) was added to include the phase II reaction, glucuronic acid conjugation, in the assay. After 5 minutes of pre-incubation the reaction was started by addition of the test article to give a final concentration of 20 μM. Samples were incubated for 15 min at 37° C. and the reactions were terminated by addition of equal volumes of acetonitrile. Blank incubations were performed at the same concentration but without addition of microsomes. Both blank and microsome-containing samples were made in replicats of three. Prior to analysis samples were centrifuged for 10 min. at 3500 rpm,HPLC system:
Initial conditions were 40% mobile phase A (acetonitrile) and 60% mobile phase B (10 mM ammonium acetate pH 9.5). During the first 20 minutes, the mobile phase was changed via a linear gradient to 90% A and 10% B. This was followed by a 5 minutes linear gradient to initial conditions, which were maintained for 5 min. The flow rate was 0.20 m)/min and injection volume 10 μl.

[10] = A: Staphylococcus aureus ATCC29213
[11] = B: Staphylococcus aureus ATCC33591(resistant to methicillin)
[12] = D: Enterococcus faecalis ATCC29212
[13] = E: Enterococcus faecium #17501 (vancomycin-resistant)
[14] = F: Streptococcus pneumoniae #998

Row | SMILES | MIC [1, 10] [µM] | MIC [2, 11] [µM] | MIC [3, 12] [µM] | MIC [4, 13] [µM] | MIC [5, 14] [µM] | MIC [6] [µM] | MIC (Eschericia coli ESS; H: Eschericia coli ESS) [µM] | other results
1 | COc1ccc(C(=O)/C=C/c2cc(C(C)(C)C)ccc2OCCN(C)C)c(F)c1 [Compound C004, (E)-3-[5-tert-Butyl-2-(2-dimethylamino-ethoxy)-phenyl]-1-(2-fluoro-4-methoxy-phenyl)-propenone] | 9.4 (≈ 3.76 µg/mL) | 9.4 (≈ 3.76 µg/mL) | 18.8 (≈ 7.51 µg/mL) | 18.8 (≈ 7.51 µg/mL) | 18.8 (≈ 7.51 µg/mL) | 75.0 (≈ 30 µg/mL) | 9.4 (≈ 3.76 µg/mL) | potency against Gram-positive pathogens in comparison with Licochalcone A [7]: increased potency
2 | COc1ccc(C(=O)/C=C/c2cc(-c3ccccc3)ccc2OCCN(C)C)c(F)c1 [Compound C011, (E)-3-[4-(2-Dimethylamino-ethoxy)-biphenyl-3-yl]-1-(2-fluoro-4-methoxy-phenyl)-propenone] | – | – | – | – | – | – | – | IC50 (L. major promastigotes): 100 nM
3 | Cc1ccccc1-c1ccc(OCCN(C)C)c(/C=C/C(=O)c2ccccc2CN2CCN(C)CC2)c1 [Compound C032, (E)-3-[4-(2-Dimethylamino-ethoxy)-2′-methyl-biphenyl-3-yl]-1-[2-(4-methyl-piperazin-1-ylmethyl)-phenyl]-propenone] | – | – | – | – | – | – | – | IC50 [8]: 500 nM; IC50 (L. major promastigotes): 700 nM
4 | CCCc1cc(/C=C/C(=O)c2ccc(OC)cc2F)c(OCCN(C)C)cc1O [Compound C039, (E)-3-[2-(2-Dimethylamino-ethoxy)-4-hydroxy-5-propyl-phenyl]-1-(2-fluoro-4-methoxy-phenyl)-propenone] | 9.4 (≈ 3.77 µg/mL) | 18.8 (≈ 7.55 µg/mL) | 18.8 (≈ 7.55 µg/mL) | 18.8 (≈ 7.55 µg/mL) | 18.8 (≈ 7.55 µg/mL) | 75.0 (≈ 30.1 µg/mL) | 9.4 (≈ 3.77 µg/mL) | –
5 | Cc1cc(C)cc(-c2ccc(OCCN(C)C)c(/C=C/C(=O)c3ccccc3OC(C)C)c2)c1 [Compound C067, (E)-3-[4-(2-Dimethylamino-ethoxy)-3′,5′-dimethyl-biphenyl-3-yl]-1(2-isopropoxy-phenyl)-propenone] | 4.7 (≈ 2.15 µg/mL) | 4.7 (≈ 2.15 µg/mL) | 4.7 (≈ 2.15 µg/mL) | 4.7 (≈ 2.15 µg/mL) | 18.8 (≈ 8.6 µg/mL) | – | 18.8 (≈ 8.6 µg/mL) | –
6 | CN(C)CCCOc1cccc(/C=C/C(=O)c2ccccc2CN(C)C)c1 [Compound C071, (E)-1-(2-Dimethylaminomethyl-phenyl)-3-[3-(3-dimethylamino-propoxy)-phenyl]-propenone] | – | – | – | – | – | – | – | Metabolic turn-over in vitro [9]: 3%
7 | Cc1cc(C)cc(-c2ccc(OCCN(C)C)c(CCC(=O)c3ccc(F)cc3)c2)c1 [Compound C072, 3-[4-(2-Dimethylamino-ethoxy)-3′,5′-dimethyl-biphenyl-3-yl]-1-(4-fluoro-phenyl)-propan-1-one] | – | – | – | – | – | – | – | MIC ([1]; Staphylococcus aureus, ATCC29213): 9.4 µM (≈ 3.94 µg/mL); MIC ([2]; Staphylococcus aureus, ATCC33591): 18.8 µM (≈ 7.89 µg/mL); MIC ([3]; Enterococcus faecalis, ATCC29212): 18.8 µM (≈ 7.89 µg/mL); MIC ([4]; Enterococcus faecium): 18.8 µM (≈ 7.89 µg/mL); MIC ([5]; Streptococcus pneumoniae): 37.5 µM (≈ 15.7 µg/mL); MIC (Eschericia coli ESS): 9.4 µM (≈ 3.94 µg/mL)
8 | Cc1cc(C)cc(-c2ccc(OCCN(C)C)c(/C=C/C(=O)c3cccc(O)c3)c2)c1 [Compound C085, (E)-3-[4-(2-Dimethylamino-ethoxy)-3′,5′-dimethyl-biphenyl-3-yl]-1-(3-hydroxy-phenyl)-propenone] | 4.7 (≈ 1.95 µg/mL) | 4.7 (≈ 1.95 µg/mL) | 4.7 (≈ 1.95 µg/mL) | 4.7 (≈ 1.95 µg/mL) | 75 (≈ 31.2 µg/mL) | – | 4.7 (≈ 1.95 µg/mL) | –
9 | Cc1cc(C)cc(-c2ccc(OCCN(C)C)c(/C=C/C(=O)c3cccc(CN(C)C)c3)c2)c1 [Compound C089, (E)-3-[4-(2-Dimethylamino-ethoxy)-3′,5′-dimethyl-biphenyl-3-yl]-1-(3-dimethylaminomethyl-phenyl)-propenone] | 9.4 (≈ 4.29 µg/mL) | 9.4 (≈ 4.29 µg/mL) | 9.4 (≈ 4.29 µg/mL) | 9.4 (≈ 4.29 µg/mL) | 9.7 (≈ 4.43 µg/mL) | 37.5 (≈ 17.1 µg/mL) | 4.7 (≈ 2.15 µg/mL) | Metabolic turn-over in vitro [9]: 9%
10 | COc1ccc(C(=O)/C=C/c2cc(-c3cc(C)cc(C)c3)ccc2OCCN(C)C)cc1CN(C)C [Compound C090, (E)-3-[4-(2-Dimethylamino-ethoxy)-3′,5′-dimethyl-biphenyl-3-yl]-1-(3-dimethylaminomethyl-4-methoxy-phenyl)-propenone] | – | – | – | – | – | – | – | IC50 [8]: 500 nM
11 | COc1ccc(C(=O)/C=C/c2cc(-c3cc(C)cc(C)c3)ccc2OCCN(C)C)c(CN(C)C)c1 [Compound C092, (E)-3-[4-(2-Dimethylamino-ethoxy)-3′,5′-dimethyl-biphenyl-3-yl]-1-(2-dimethylaminomethyl-4-methoxy-phenyl)-propenone] | 4.7 (≈ 2.29 µg/mL) | 9.4 (≈ 4.57 µg/mL) | 4.7 (≈ 2.29 µg/mL) | 4.7 (≈ 2.29 µg/mL) | 4.7 (≈ 2.29 µg/mL) | 75 (≈ 36.5 µg/mL) | 4.7 (≈ 2.29 µg/mL) | Metabolic turn-over in vitro [9]: 4%
12 | Cc1cc(C)cc(-c2ccc(OCCN(C)C)c(/C=C/C(=O)c3ccccc3N)c2)c1 [Compound C093, (E)-1-(2-Amino-phenyl)-3-[4-(2-dimethylamino-ethoxy)-3′,5′-dimethyl-biphenyl-3-yl]-propenone] | 4.7 (≈ 1.95 µg/mL) | 4.7 (≈ 1.95 µg/mL) | 9.4 (≈ 3.9 µg/mL) | 4.7 (≈ 1.95 µg/mL) | 18.8 (≈ 7.79 µg/mL) | – | 4.7 (≈ 1.95 µg/mL) | –
13 | Cc1cc(C)cc(-c2ccc(OCCN(C)C)c(/C=C/C(=O)c3cccc(N4CCN(C)CC4)c3)c2)c1 [Compound C103, (E)-3-[4-(2-Dimethylamino-ethoxy)-3′,5′-dimethyl-biphenyl-3-yl]-1-[3-(4-methyl-piperazin-1-yl)-phenyl]-propenone] | 4.7 (≈ 2.34 µg/mL) | 4.7 (≈ 2.34 µg/mL) | 9.4 (≈ 4.68 µg/mL) | 9.4 (≈ 4.68 µg/mL) | – | 18.8 (≈ 9.36 µg/mL) | 4.7 (≈ 2.34 µg/mL) | activity against E coli ATCC25922 [6]: high activity; activity against ESS strain of E.coli (Eschericia coli ESS): high activity
14 | Cc1cc(C)cc(-c2ccc(OCCN(C)C)c(/C=C/C(=O)c3ccccc3OCCCN(C)C)c2)c1 [Compound C104, (E)-3-[4-(2-Dimethylamino-ethoxy)-3′,5′-dimethyl-biphenyl-3-yl]-1-[2-(3-dimethylamino-propoxy)-phenyl]-propenone] | 9.4 (≈ 4.71 µg/mL) | 18.8 (≈ 9.41 µg/mL) | 9.4 (≈ 4.71 µg/mL) | 9.4 (≈ 4.71 µg/mL) | 9.4 (≈ 4.71 µg/mL) | 18.8 (≈ 9.41 µg/mL) | 9.4 (≈ 4.71 µg/mL) | –
15 | CN(C)CCOc1ccc(-c2ccccc2O)cc1/C=C/C(=O)c1ccccc1CN(C)C [Compound C131, (E)-3-[4-(2-Dimethylamino-ethoxy)-2′-hydroxy-biphenyl-3-yl]-1-(2-dimethylaminomethyl-phenyl)-propenone] | – | – | – | – | – | – | – | IC50 [8]: 300 nM
16 | Cc1cc(C)cc(-c2ccc(OCCN(C)C)c(/C=C/C(=O)c3ccc(O)c(F)c3)c2)c1 [Compound C140, (E)-3-[4-(2-Dimethylamino-ethoxy)-3′,5′-dimethyl-biphenyl-3-yl]-1-(3-fluoro-4-hydroxy-phenyl)-propenone] | – | – | – | – | – | – | – | IC50 (L. major promastigotes): 200 nM
17 | Cc1cc(C)cc(-c2ccc(OCCN(C)C)c(/C=C/C(=O)c3ccc(O)cc3F)c2)c1 [Compound C156, (E)-3-[4-(2-Dimethylamino-ethoxy)-3′,5′-dimethyl-biphenyl-3-yl]-1-(2-fluoro-4-hydroxy-phenyl)-propenone] | – | – | – | – | – | – | – | IC50 [8]: 100 nM
18 | Cc1cc(C)cc(-c2ccc(OCCN(C)C)c(/C=C/C(=O)c3ccc(OCCN(C)C)cc3F)c2)c1 [Compound C157, (E)-3-[4-(2-Dimethylamino-ethoxy)-3′,5′-dimethyl-biphenyl-3-yl]-1-[4-(2-dimethylamino-ethoxy)-2-fluoro-phenyl]-propenone] | 4.7 (≈ 2.37 µg/mL) | 9.4 (≈ 4.74 µg/mL) | 9.4 (≈ 4.74 µg/mL) | 9.4 (≈ 4.74 µg/mL) | 9.4 (≈ 4.74 µg/mL) | 18.8 (≈ 9.49 µg/mL) | 4.7 (≈ 2.37 µg/mL) | –
